The values below come from ChEMBL document CHEMBL1221402, “Bioactivity-guided isolation of 1,2,3,4,6-Penta-O-galloyl-D-glucopyranose from Paeonia lactiflora roots as a PTP1B inhibitor” (J Nat Prod, 2010).

The source made the active and inactive calls. No cut-off for these calls is given here.

In assay [1] the target is T1, Tyrosine-protein phosphatase non-receptor type 1 (Homo sapiens, UniProt P18031).
T1 sequence (P18031 whole entry): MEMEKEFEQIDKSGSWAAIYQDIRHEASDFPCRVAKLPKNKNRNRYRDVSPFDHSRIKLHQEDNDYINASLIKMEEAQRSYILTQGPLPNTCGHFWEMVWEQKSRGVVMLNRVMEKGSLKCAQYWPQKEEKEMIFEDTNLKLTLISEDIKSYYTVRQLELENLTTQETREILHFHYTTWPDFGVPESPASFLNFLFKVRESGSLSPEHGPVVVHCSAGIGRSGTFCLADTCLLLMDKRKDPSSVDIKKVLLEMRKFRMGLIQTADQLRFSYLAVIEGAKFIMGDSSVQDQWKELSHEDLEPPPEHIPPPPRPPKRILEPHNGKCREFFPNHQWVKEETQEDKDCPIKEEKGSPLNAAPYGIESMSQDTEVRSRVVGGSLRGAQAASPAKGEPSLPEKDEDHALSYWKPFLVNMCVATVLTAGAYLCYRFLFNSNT
The assay can be described thus: Inhibition of human recombinant PTP1B.

Assay [2] concerns the target Insulin receptor (Homo sapiens) (UniProt P06213). Briefly: Induction of IR phosphorylation in insulin-stimulated starved human HCC-1.2 cells at 10 uM pretreated 2 hrs before insulin challenge by Western blot analysis. (In general: A western blot detects proteins with antibodies after separation by electrophoresis.)
Assay [3] has as its target T2, Tyrosine-protein phosphatase non-receptor type 2 (Homo sapiens, UniProt P17706).
T2 sequence (P17706 whole entry): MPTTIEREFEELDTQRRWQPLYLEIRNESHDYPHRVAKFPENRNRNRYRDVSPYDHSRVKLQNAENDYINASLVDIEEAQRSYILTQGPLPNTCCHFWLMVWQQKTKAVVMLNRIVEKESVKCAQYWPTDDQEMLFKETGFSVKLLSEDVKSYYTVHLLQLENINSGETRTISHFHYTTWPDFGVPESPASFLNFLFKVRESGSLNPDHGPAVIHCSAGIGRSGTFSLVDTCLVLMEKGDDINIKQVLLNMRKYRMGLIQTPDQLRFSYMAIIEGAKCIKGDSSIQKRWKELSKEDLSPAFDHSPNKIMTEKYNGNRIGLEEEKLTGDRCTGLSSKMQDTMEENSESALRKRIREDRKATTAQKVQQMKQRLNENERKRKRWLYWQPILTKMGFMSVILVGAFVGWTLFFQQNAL
Briefly: Inhibition of TCPTP.

Assay [4] concerns the target Receptor-type tyrosine-protein phosphatase F (Homo sapiens) (UniProt P10586). The assay can be described thus: Inhibition of LAR at <50 uM.
The target in assay [5] is T3, Tyrosine-protein phosphatase non-receptor type 11 (Homo sapiens) (UniProt Q06124).
T3 sequence (whole entry): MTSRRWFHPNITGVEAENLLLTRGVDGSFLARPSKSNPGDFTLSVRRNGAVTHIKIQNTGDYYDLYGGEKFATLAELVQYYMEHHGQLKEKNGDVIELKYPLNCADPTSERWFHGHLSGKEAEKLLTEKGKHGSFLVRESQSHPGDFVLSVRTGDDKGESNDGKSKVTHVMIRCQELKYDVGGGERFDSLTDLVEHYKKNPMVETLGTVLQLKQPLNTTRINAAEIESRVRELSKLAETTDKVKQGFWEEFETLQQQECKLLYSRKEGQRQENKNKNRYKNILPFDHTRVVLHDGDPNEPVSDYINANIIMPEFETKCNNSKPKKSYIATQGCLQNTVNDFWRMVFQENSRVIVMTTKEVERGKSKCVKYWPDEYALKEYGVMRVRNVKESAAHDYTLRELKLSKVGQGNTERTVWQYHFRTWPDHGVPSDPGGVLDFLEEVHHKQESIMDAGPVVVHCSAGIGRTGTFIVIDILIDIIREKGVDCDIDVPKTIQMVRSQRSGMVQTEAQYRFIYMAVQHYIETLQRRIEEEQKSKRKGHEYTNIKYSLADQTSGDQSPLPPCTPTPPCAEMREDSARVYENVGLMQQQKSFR
The assay can be described thus: Inhibition of SHP-2 at <50 uM.

As usually defined, the IC50 is the midpoint of a concentration-inhibition curve.

Insulin receptor (Homo sapiens), sequence (P06213 28-758 limits assumed): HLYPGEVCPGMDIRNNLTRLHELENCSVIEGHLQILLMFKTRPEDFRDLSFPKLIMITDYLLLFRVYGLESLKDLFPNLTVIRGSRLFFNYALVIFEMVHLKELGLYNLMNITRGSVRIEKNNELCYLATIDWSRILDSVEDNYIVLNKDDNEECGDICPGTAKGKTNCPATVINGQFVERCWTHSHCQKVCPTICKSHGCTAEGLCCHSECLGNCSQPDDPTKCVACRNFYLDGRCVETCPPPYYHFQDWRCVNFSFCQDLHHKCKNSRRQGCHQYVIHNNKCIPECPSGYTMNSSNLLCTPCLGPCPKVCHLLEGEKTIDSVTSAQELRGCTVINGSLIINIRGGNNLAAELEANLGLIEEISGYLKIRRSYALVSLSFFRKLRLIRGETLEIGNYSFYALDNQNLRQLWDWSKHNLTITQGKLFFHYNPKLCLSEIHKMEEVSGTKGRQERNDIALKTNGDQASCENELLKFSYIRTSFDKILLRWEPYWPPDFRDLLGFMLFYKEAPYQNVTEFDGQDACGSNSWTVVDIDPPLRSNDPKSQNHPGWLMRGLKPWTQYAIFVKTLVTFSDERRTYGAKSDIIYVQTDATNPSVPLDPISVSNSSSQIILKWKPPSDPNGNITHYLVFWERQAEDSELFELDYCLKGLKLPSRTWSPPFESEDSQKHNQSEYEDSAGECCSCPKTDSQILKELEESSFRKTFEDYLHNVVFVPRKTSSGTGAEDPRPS
Insulin receptor (Homo sapiens), sequence (P06213 763-1382 limits assumed): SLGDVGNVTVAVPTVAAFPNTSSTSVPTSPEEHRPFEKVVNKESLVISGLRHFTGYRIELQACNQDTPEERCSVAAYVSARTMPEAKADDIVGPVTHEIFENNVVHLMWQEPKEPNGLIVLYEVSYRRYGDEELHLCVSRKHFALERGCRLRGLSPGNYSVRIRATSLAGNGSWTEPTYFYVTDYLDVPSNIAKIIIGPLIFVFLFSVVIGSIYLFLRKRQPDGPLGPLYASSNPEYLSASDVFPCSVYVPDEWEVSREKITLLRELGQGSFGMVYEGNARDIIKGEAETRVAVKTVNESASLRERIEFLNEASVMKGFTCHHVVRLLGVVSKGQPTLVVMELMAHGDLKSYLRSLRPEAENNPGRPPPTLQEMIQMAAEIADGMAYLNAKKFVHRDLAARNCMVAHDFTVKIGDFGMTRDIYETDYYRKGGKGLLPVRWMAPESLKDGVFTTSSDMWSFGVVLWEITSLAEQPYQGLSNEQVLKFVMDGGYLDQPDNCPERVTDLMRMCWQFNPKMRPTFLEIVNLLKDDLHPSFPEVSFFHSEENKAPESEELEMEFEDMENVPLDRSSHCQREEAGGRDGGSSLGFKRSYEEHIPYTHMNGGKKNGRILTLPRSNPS
Receptor-type tyrosine-protein phosphatase F (Homo sapiens), sequence (P10586 whole entry): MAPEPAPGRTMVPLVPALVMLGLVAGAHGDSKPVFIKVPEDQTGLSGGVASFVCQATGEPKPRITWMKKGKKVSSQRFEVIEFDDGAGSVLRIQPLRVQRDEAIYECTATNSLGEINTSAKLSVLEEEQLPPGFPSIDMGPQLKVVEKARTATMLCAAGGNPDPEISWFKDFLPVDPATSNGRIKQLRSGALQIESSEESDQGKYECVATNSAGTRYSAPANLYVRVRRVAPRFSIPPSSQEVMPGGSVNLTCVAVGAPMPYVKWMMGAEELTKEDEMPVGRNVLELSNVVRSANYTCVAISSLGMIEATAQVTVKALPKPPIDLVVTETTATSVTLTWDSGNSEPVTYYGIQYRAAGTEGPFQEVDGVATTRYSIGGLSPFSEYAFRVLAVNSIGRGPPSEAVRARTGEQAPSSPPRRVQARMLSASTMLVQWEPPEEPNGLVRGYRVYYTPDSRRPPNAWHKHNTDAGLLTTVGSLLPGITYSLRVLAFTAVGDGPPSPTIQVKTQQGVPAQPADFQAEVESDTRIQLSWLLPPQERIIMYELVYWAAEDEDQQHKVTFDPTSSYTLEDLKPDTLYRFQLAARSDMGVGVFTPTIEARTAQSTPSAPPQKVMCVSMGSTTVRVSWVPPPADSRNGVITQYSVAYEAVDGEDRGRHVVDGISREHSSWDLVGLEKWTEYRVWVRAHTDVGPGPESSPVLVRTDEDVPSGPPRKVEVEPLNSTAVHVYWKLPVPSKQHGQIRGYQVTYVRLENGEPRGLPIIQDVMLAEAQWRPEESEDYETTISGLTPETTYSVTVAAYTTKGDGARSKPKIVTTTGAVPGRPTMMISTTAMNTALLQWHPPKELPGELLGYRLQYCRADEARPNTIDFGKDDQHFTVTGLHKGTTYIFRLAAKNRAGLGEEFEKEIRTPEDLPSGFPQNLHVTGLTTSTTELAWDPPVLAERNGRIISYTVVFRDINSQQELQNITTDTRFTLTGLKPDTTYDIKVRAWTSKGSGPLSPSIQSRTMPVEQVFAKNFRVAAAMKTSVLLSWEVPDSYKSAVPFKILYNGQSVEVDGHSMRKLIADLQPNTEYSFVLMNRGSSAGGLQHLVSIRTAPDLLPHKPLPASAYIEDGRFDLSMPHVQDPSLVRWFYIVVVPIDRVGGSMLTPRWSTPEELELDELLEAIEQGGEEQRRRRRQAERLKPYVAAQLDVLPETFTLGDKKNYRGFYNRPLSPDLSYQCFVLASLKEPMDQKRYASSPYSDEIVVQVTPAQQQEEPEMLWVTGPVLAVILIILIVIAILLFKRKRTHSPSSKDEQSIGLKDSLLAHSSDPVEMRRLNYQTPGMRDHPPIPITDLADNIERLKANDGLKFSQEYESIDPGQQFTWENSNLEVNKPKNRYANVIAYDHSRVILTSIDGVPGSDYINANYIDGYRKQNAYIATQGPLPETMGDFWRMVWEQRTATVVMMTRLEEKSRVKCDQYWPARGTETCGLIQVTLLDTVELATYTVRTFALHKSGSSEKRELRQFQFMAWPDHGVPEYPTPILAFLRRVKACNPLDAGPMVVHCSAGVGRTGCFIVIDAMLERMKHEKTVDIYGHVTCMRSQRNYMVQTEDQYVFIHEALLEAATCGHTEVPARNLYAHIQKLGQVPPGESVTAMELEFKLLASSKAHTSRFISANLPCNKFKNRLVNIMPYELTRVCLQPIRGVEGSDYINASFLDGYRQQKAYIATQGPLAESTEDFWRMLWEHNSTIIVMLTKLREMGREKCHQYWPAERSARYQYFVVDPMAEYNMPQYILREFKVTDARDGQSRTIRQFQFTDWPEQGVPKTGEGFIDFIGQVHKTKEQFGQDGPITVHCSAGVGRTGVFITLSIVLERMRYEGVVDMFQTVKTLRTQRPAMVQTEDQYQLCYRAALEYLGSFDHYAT

On to `O=C(OC[C@H]1O[C@H](OC(=O)c2cc(O)c(O)c(O)c2)[C@H](OC(=O)c2cc(O)c(O)c(O)c2)[C@@H](OC(=O)c2cc(O)c(O)c(O)c2)[C@@H]1OC(=O)c1cc(O)c(O)c(O)c1)c1cc(O)c(O)c(O)c1`, for which the results for the IC50 in assay [1] and in assay [3] were 4.8 µM and 0.07 µM, respectively. Moreover, the result in assay [2] was Active. Further, the inhibition entry in assay [4] and in assay [5] was “inactive” throughout.
